Data: ChEMBL document CHEMBL4387765, “Rational design, molecular docking and synthesis of novel homopiperazine linked imidazo[1,2-a]pyrimidine derivatives as potent cytotoxic and antimicrobial agents” (Bioorg Med Chem Lett, 2019)
Converted amounts (≈) assume the structure as drawn.

Key:
[1] = test system: Candida albicans; assay: Antifungal activity against Candida albicans MTCC 227 after 72 hrs by serial dilution method; assay type: functional; details: MTCC 227, 72 h
[2] = test system: SK-OV-3; assay: Cytotoxicity against human SKOV3 cells assessed as reduction in cell growth measured after 48 hrs by sulforhodamine B assay; assay type: functional, cell-based; details: SK-OV-3, 48 h
[3] = test system: DU-145; assay: Cytotoxicity against human DU145 cells assessed as reduction in cell growth measured after 48 hrs by sulforhodamine B assay; assay type: functional, cell-based; details: DU-145, 48 h
[4] = test system: HeLa; assay: Cytotoxicity against human HeLa cells assessed as reduction in cell growth measured after 48 hrs by sulforhodamine B assay; assay type: functional, cell-based
[5] = test system: A549; assay: Cytotoxicity against human A549 cells assessed as reduction in cell growth measured after 48 hrs by sulforhodamine B assay; assay type: functional, cell-based; details: A549, 48 h
[6] = test system: Bacillus subtilis; assay: Antibacterial activity against Bacillus subtilis MTCC 441 after 24 hrs by serial dilution method; assay type: functional; details: MTCC 441, 24 h
[7] = test system: Priestia megaterium; assay: Antibacterial activity against Bacillus megaterium MTCC 428 after 24 hrs by serial dilution method; assay type: functional; details: MTCC 428, 24 h
[8] = test system: Escherichia coli; assay: Antibacterial activity against Escherichia coli MTCC 443 after 24 hrs by serial dilution method; assay type: functional
[9] = test system: Pseudomonas sp.; assay: Antibacterial activity against Pseudomonas sp. 2496 after 24 hrs by serial dilution method; assay type: functional
[10] = test system: HeLa; assay: Potency index, ratio of etoposide IC50 to test compound IC50 for human HeLa cells; assay type: functional
[11] = test system: DU-145; assay: Potency index, ratio of etoposide IC50 to test compound IC50 for human DU145 cells; assay type: functional

| Molecule | MIC [1] [µg/mL] | IC50 [2] [µM] | IC50 [3] [µM] | IC50 [4] [µM] | IC50 [5] [µM] | MIC [6] [µg/mL] | MIC [7] [µg/mL] | MIC ([8]; MTCC 443, 24 h) [µg/mL] | MIC ([9]; Pseudomonas sp., 2496, 24 h) [µg/mL] | Ratio IC50 [10] | Ratio IC50 [11] | MIC [8] [µg/mL] | MIC [9] [µg/mL] |
| --- | --- | --- | --- | --- | --- | --- | --- | --- | --- | --- | --- | --- | --- |
| C[C@@H]1[C@H](O)[C@@H](C)/C=C/C=C/C=C/C=C/C=C/C=C/C=C/[C@H](O[C@@H]2O[C@H](C)[C@@H](O)[C@H](N)[C@@H]2O)C[C@@H]2O[C@](O)(C[C@@H](O)C[C@@H](O)[C@H](O)CC[C@@H](O)C[C@@H](O)CC(=O)O[C@H]1C)C[C@H](O)[C@H]2C(=O)O [AMPHOTERICIN B] | 8 (≈ 8.66 µM) | – | – | – | – | – | – | – | – | – | – | – | – |
| COc1ccc(S(=O)(=O)N2CCCN(c3ccn4cc(-c5ccc(F)cc5)nc4n3)CC2)cc1 | 9.4 (≈ 19.5 µM) | > 300 | > 300 | > 300 | 205 | 12.8 (≈ 26.6 µM) | 14.6 (≈ 30.3 µM) | > 100 | 88.2 (≈ 183 µM) | – | – | – | – |
| O=C(Cc1cccs1)N1CCCN(c2ccn3cc(-c4ccc(F)cc4)nc3n2)CC1 | 5.6 (≈ 12.9 µM) | 18.8 | 65.5 | > 300 | > 300 | 44.2 (≈ 101 µM) | 38.6 (≈ 88.6 µM) | 3.1 (≈ 7.12 µM) | 3.1 (≈ 7.12 µM) | – | – | – | – |
| CN(C)S(=O)(=O)N1CCCN(c2ccn3cc(-c4ccc(F)cc4)nc3n2)CC1 | 8.2 (≈ 19.6 µM) | > 300 | > 300 | > 300 | 29.9 | 9.6 (≈ 22.9 µM) | 10.2 (≈ 24.4 µM) | 1.4 (≈ 3.35 µM) | 3.8 (≈ 9.08 µM) | – | – | – | – |
| O=C(Cc1ccccc1)N1CCCN(c2ccn3cc(-c4ccc(F)cc4)nc3n2)CC1 | > 100 | 17.4 | > 300 | > 300 | 262 | 38.6 (≈ 89.9 µM) | 34.2 (≈ 79.6 µM) | 8.4 (≈ 19.6 µM) | 10.2 (≈ 23.7 µM) | – | – | – | – |
| O=C(C1CC1)N1CCCN(c2ccn3cc(-c4ccc(F)cc4)nc3n2)CC1 | > 100 | 18.8 | > 300 | > 300 | 144 | 88.6 (≈ 234 µM) | 92.4 (≈ 244 µM) | 94.7 (≈ 250 µM) | > 100 | – | – | – | – |
| O=C(c1ccc(Cl)cc1)N1CCCN(c2ccn3cc(-c4ccc(F)cc4)nc3n2)CC1 | > 100 | > 300 | 15.2 | 8.55 | 110 | 58.6 (≈ 130 µM) | 58.6 (≈ 130 µM) | 88.2 (≈ 196 µM) | > 100 | – | – | – | – |
| CC(=O)N1CCCN(c2ccn3cc(-c4ccc(F)cc4)nc3n2)CC1 | 9.8 (≈ 27.7 µM) | 105 | > 300 | 220 | 103 | 84.2 (≈ 238 µM) | > 100 | 0.92 (≈ 2.6 µM) | 12.6 (≈ 35.7 µM) | – | – | – | – |
| COC(=O)N1CCCN(c2ccn3cc(-c4ccc(F)cc4)nc3n2)CC1 | 81.6 (≈ 221 µM) | 38.7 | > 300 | 262 | 8.02 | 35.8 (≈ 96.9 µM) | 47.2 (≈ 128 µM) | 7.8 (≈ 21.1 µM) | 18.6 (≈ 50.4 µM) | – | – | – | – |
| Cc1ccc(S(=O)(=O)N2CCCN(c3ccn4cc(-c5ccc(F)cc5)nc4n3)CC2)cc1[N+](=O)[O-] | 81.6 (≈ 160 µM) | > 300 | 16.9 | > 300 | > 300 | 34.2 (≈ 67 µM) | 58.8 (≈ 115 µM) | 4.2 (≈ 8.23 µM) | 8.6 (≈ 16.8 µM) | – | – | – | – |
| O=C(c1ccc(F)cc1)N1CCCN(c2ccn3cc(-c4ccc(F)cc4)nc3n2)CC1 | 74.2 (≈ 171 µM) | 12.7 | > 300 | 6.12 | 194 | 34.4 (≈ 79.4 µM) | 36.7 (≈ 84.7 µM) | 22.8 (≈ 52.6 µM) | 38.2 (≈ 88.1 µM) | 1.31 | – | – | – |
| CN(C)C(=O)N1CCCN(c2ccn3cc(-c4ccc(F)cc4)nc3n2)CC1 | 4.6 (≈ 12 µM) | 71.5 | 10.6 | > 300 | 5.98 | 18.6 (≈ 48.6 µM) | 15.8 (≈ 41.3 µM) | 0.86 (≈ 2.25 µM) | 1.8 (≈ 4.71 µM) | – | – | – | – |
| N#Cc1ccc(S(=O)(=O)N2CCCN(c3ccn4cc(-c5ccc(F)cc5)nc4n3)CC2)cc1 | 68.1 (≈ 143 µM) | 22.3 | > 300 | > 300 | > 300 | 24.8 (≈ 52 µM) | 21.7 (≈ 45.5 µM) | 58.6 (≈ 123 µM) | 34.2 (≈ 71.8 µM) | – | – | – | – |
| O=C(C1CCCCC1)N1CCCN(c2ccn3cc(-c4ccc(F)cc4)nc3n2)CC1 | > 100 | 14.5 | 183 | 170 | 104 | > 100 | > 100 | > 100 | 44.2 (≈ 105 µM) | – | – | – | – |
| O=S(=O)(C1CC1)N1CCCN(c2ccn3cc(-c4ccc(F)cc4)nc3n2)CC1 | 14.6 (≈ 35.1 µM) | > 300 | 40.4 | 33.5 | > 300 | 48.4 (≈ 116 µM) | 64.6 (≈ 155 µM) | 34.6 (≈ 83.3 µM) | 28.2 (≈ 67.9 µM) | – | – | – | – |
| COc1cccc(S(=O)(=O)N2CCCN(c3ccn4cc(-c5ccc(F)cc5)nc4n3)CC2)c1 | > 100 | 229 | 6.24 | 6.54 | 4.14 | 84.8 (≈ 176 µM) | 84.4 (≈ 175 µM) | 33.8 (≈ 70.2 µM) | 22.1 (≈ 45.9 µM) | 1.13 | 1.57 | – | – |
| CS(=O)(=O)N1CCCN(c2ccn3cc(-c4ccc(F)cc4)nc3n2)CC1 | 38.7 (≈ 99.4 µM) | > 300 | > 300 | > 300 | 8.41 | 28.7 (≈ 73.7 µM) | 26.4 (≈ 67.8 µM) | 18.4 (≈ 47.2 µM) | 34.6 (≈ 88.8 µM) | – | – | – | – |
| CC1(C)S[C@@H]2[C@H](NC(=O)[C@H](N)c3ccccc3)C(=O)N2[C@H]1C(=O)O [AMPICILLIN] | – | – | – | – | – | 22 (≈ 63 µM) | 22 (≈ 63 µM) | – | – | – | – | – | – |
| O=S(=O)(c1ccc(F)cc1F)N1CCCN(c2ccn3cc(-c4ccc(F)cc4)nc3n2)CC1 | > 100 | 10 | > 300 | > 300 | > 300 | 8.8 (≈ 18.1 µM) | 10.4 (≈ 21.3 µM) | 4.6 (≈ 9.44 µM) | 5.2 (≈ 10.7 µM) | – | – | – | – |
| GENTAMICIN | – | – | – | – | – | – | – | – | – | – | – | 3 | 6 |
| COc1cc([C@@H]2c3cc4c(cc3[C@@H](O[C@@H]3O[C@@H]5CO[C@@H](C)O[C@H]5[C@H](O)[C@H]3O)[C@H]3COC(=O)[C@H]23)OCO4)cc(OC)c1O [ETOPOSIDE] | – | 2.39 | 9.8 | 7.43 | 10.4 | – | – | – | – | – | – | – | – |
